# Values joined by “and” are separate entries in the source; they are usually repeats but may differ in a detail not shown here. Equal values may be shown once. Non-standard residues stand in square brackets, D forms with d. Residues, ends and D or L forms follow the SMILES beside them.
# What was measured:
# Format in all cases: in vivo, human
# endogenous GH secretion = assay: Phase II CKD: 24-hour GH profile and deconvolution
# Experimental: Blood samples for assessment of GH secretion had to be taken over 24 hours because the release of endogenous GH was pulsatile and not consistent throughout the day. Much of endogenous GH release is closely coupled to periods of slow-wave sleep, and the bulk of GH secretion usually occurs between midnight and 4 am. […] To document clearly the effect of the GHRH(1-29)NH2 synthetic analog on endogenous GH secretion, the following protocol had been designed: first, baseline endogenous GH secretion was assessed on Day 0 by sampling blood every 20 minutes for 20 hours and every 10 minutes for 4 hours. At the end of this sampling period (in the afternoon of Day 1), the first injection of the GHRH(1-29)NH2 synthetic analog was given. At the end of the 4-week treatment period (Day 28), GH secretion was reassessed by another 24-hour secretion profile. This profile started at 8:30 am with the morning injection of the GHRH(1-29)NH2 synthetic analog. Blood was collected every 10 minutes for the first 4 hours, followed by sampling every 20 minutes for the next 20 hours; this period included the afternoon injection of the GHRH(1-29)NH2 synthetic analog. In this way, it was possible to assess the evolution of both the pituitary's immediate GHRH response and that of time-integrated 24-hour GH secretion over extended treatment.
# On Day 0 (baseline) and Day 28, subjects commenced 24-hour sampling at 10 and 20-minute intervals to construct a GH profile. […] The cannula was flushed with heparin-saline solution after each blood withdrawal to prevent clotting. Immediately before each blood collection, the residual heparin-saline volume instilled in the cannula was withdrawn with 0.5 mL blood in a separate syringe. This volume was reinjected after collection of the sample used for GH analysis.
# At the baseline visit, blood sampling for the 24-hour GH profile commenced on Day 0 by taking samples at 20-minute intervals for 20 hours. Immediately at the end of this period, on the morning of Day 1, samples were taken at 10-minute intervals for 4 hours. The first dose of investigational product was not given before the end of the 24-hour GH profile period. On Day 28, samples were taken pre-dose, at 10-minute intervals for the first 4 hours (at the same time of day as the 4-hour period on Day 1) and at 20-minute intervals thereafter for a further 20 hours.
# Samples were analysed for GH at the Department of Nephrology, Endocrinology and Metabolic Diseases, Silesian University School of Medicine, Katowice, Poland using a commercial kit.
# Leptin and adiponectin = assay: Phase II CKD: fat regulation (leptin, adiponectin)
# Experimental: Leptin (ng/mL) and adiponectin (μg/mL) were measured at every visit from baseline to Day 28 as markers for regulating metabolism. Samples were analysed at the Department of Nephrology, Endocrinology and Metabolic Diseases, Silesian University School of Medicine, Katowice.
# [1] = tested on: malnourished subjects with CKD; assay: Phase II CKD: abnormal and clinically significant haematology values; conditions: for Subjects with abnormal and clinically significant Basophils (%) / Subjects with abnormal and clinically significant Eosinophils (%) / Subjects with abnormal and clinically significant Haematocrit (%) / Subjects with abnormal and clinically significant Haemoglobin (%) / Subjects with abnormal and clinically significant Lymphocytes (%) / Subjects with abnormal and clinically significant MCV (%) / Subjects with abnormal and clinically significant Monocytes (%) / Subjects with abnormal and clinically significant Neutrophils (%) / Subjects with abnormal and clinically significant Platelet count (%) / Subjects with abnormal and clinically significant RBC (%) / Subjects with abnormal and clinically significant WBC (%): safety analysis set
# Text: The number of subjects with abnormal and clinically significant laboratory values at baseline and at Day 28 is presented in Table 35 (haematology) and Table 36 clinical chemistry. Overall, the number of subjects with abnormal and clinically significant laboratory values was similar in the GHRH(1-29)NH2 synthetic analog and placebo groups. No clear trends were observed.
# [2] = GH deconvolution, ITT, Baseline
# [3] = GH deconvolution, ITT, Day 28, vs placebo
smiles,measurement,setting,value
"CC[C@H](C)[C@H](NC(=O)[C@H](C)NC(=O)[C@H](CC(=O)O)NC(=O)[C@@H](C)NC(=O)[C@@H](N)Cc1ccc(O)cc1)C(=O)N[C@@H](Cc1ccccc1)C(=O)N[C@H](C(=O)N[C@@H](CC(N)=O)C(=O)N[C@@H](CO)C(=O)N[C@H](Cc1ccc(O)cc1)C(=O)N[C@@H](CCCNC(=N)N)C(=O)N[C@@H](CCCCN)C(=O)N[C@H](C(=O)N[C@@H](CC(C)C)C(=O)N[C@H](C)C(=O)N[C@@H](CCC(N)=O)C(=O)N[C@@H](CC(C)C)C(=O)N[C@@H](CO)C(=O)N[C@@H](C)C(=O)N[C@@H](CCCNC(=N)N)C(=O)N[C@@H](CCCCN)C(=O)N[C@@H](CCCCN)C(=O)N[C@@H](CC(C)C)C(=O)N[C@@H](CCC(N)=O)C(=O)N[C@@H](CC(=O)O)C(=O)N[C@H](C(=O)N[C@@H](CCSC)C(=O)N[C@@H](CO)C(=O)N[C@@H](CCCNC(=N)N)C(N)=O)[C@@H](C)CC)C(C)C)[C@@H](C)O [GHRH analog #5, [D-Ala^2, D-Tyr^10, D-Ala^15, Lys^22] hGHRH(1-29)-NH2] (H-Y[dA]DAIFTNS[dY]RKVL[dA]QLSARKKLQDIMSR-NH2)",1st component half-life: median,endogenous GH secretion; [2],6 min
same,2nd component half-life: median,endogenous GH secretion; [2],16 min
same,% pulsatile secretion rate: mean (SD),endogenous GH secretion; [2],79.02 (9.09) %
same,Basal secretion rate: median,endogenous GH secretion; [2],27 mU/L/24 h
same,Inter-pulse regularity: mean (SD),endogenous GH secretion; [2],2.35 (0.63)
same,Mass per pulse: mean (SD),endogenous GH secretion; [2],11.30 (7.02) mU/L
same,Mean pulse frequency (per 24 h): mean (SD),endogenous GH secretion; [2],8.09 (2.81) per 24 h
same,Number of pulses: mean (SD),endogenous GH secretion; [2],8.8 (3.2)
same,Pulsatile secretion rate: median,endogenous GH secretion; [2],100 mU/L/24 h
same,Time from onset to peak of burst: mean (SD),endogenous GH secretion; [2],32.8 (3.9) min
same,Total secretion rate: median,endogenous GH secretion; [2],120 mU/L/24 h
same,1st component half-life: median,"endogenous GH secretion; GH deconvolution, ITT, Day 28",2 min
same,2nd component half-life: comparison vs placebo,"endogenous GH secretion; GH deconvolution, ITT, Day 28",4.8
same,2nd component half-life: median,"endogenous GH secretion; GH deconvolution, ITT, Day 28",26 min
same,% pulsatile secretion rate: comparison vs placebo,"endogenous GH secretion; GH deconvolution, ITT, Day 28",−0.4
same,% pulsatile secretion rate: mean (SD),"endogenous GH secretion; GH deconvolution, ITT, Day 28",71.27 (16.24) %
same,Basal secretion rate: median,"endogenous GH secretion; GH deconvolution, ITT, Day 28",98 mU/L/24 h
same,Inter-pulse regularity: comparison vs placebo,"endogenous GH secretion; GH deconvolution, ITT, Day 28",−0.0
same,Inter-pulse regularity: mean (SD),"endogenous GH secretion; GH deconvolution, ITT, Day 28",1.95 (0.30)
same,Mass per pulse: comparison vs placebo,"endogenous GH secretion; GH deconvolution, ITT, Day 28",26.5
same,Mass per pulse: mean (SD),"endogenous GH secretion; GH deconvolution, ITT, Day 28",43.88 (36.16) mU/L
same,Mean pulse frequency (per 24 h): mean (SD),"endogenous GH secretion; GH deconvolution, ITT, Day 28",9.07 (3.49) per 24 h
same,Mean pulse frequency: comparison vs placebo,"endogenous GH secretion; GH deconvolution, ITT, Day 28",0.8
same,Number of pulses: comparison vs placebo,"endogenous GH secretion; GH deconvolution, ITT, Day 28",0.3
same,Number of pulses: mean (SD),"endogenous GH secretion; GH deconvolution, ITT, Day 28",9.7 (3.7)
same,Pulsatile secretion rate: median,"endogenous GH secretion; GH deconvolution, ITT, Day 28",378 mU/L/24 h
same,Time from onset to peak of burst: comparison vs placebo,"endogenous GH secretion; GH deconvolution, ITT, Day 28",−4.5
same,Time from onset to peak of burst: mean (SD),"endogenous GH secretion; GH deconvolution, ITT, Day 28",27.3 (4.7) min
same,Total secretion rate: median,"endogenous GH secretion; GH deconvolution, ITT, Day 28",495 mU/L/24 h
same,Basal secretion rate: comparison or ratio of means,endogenous GH secretion; [3],2.53
same,Pulsatile secretion rate: comparison or ratio of means,endogenous GH secretion; [3],2.81
same,Total secretion rate: comparison or ratio of means,endogenous GH secretion; [3],2.72
same,GH AUC first 4 hours: increase from baseline to day 28,endogenous GH secretion; ITT,1137%
same,GH AUC at 4 h: median,"endogenous GH secretion; ITT, Baseline",315 μIU/mL × min
same,GH AUC at 24 h: median,"endogenous GH secretion; ITT, Baseline",3473 μIU/mL × min
same,GH SD at 4 h: median,"endogenous GH secretion; ITT, Baseline",1.0 μIU/mL
same,GH SD at 24 h: median,"endogenous GH secretion; ITT, Baseline",2.9 μIU/mL
same,GH concentration at 4 h: median,"endogenous GH secretion; ITT, Baseline",1.3 μIU/mL
same,GH concentration at 24 h: median,"endogenous GH secretion; ITT, Baseline",2.1 μIU/mL
same,Mean concentration of GH secreted during the first 4 hours,"endogenous GH secretion; ITT, Baseline",1.72 μIU/ml
same,GH AUC at 4 h: median,"endogenous GH secretion; ITT, Day 28",3891 μIU/mL × min
same,GH AUC at 24 h: difference vs placebo,"endogenous GH secretion; ITT, Day 28",11585 μIU/mL × min
same,GH AUC at 24 h: median,"endogenous GH secretion; ITT, Day 28",16753 μIU/mL × min
same,GH SD at 4 h: median,"endogenous GH secretion; ITT, Day 28",11.6 μIU/mL
same,GH SD at 24 h: median,"endogenous GH secretion; ITT, Day 28",13.3 μIU/mL
same,GH concentration at 4 h: median,"endogenous GH secretion; ITT, Day 28",16.2 μIU/mL
same,GH concentration at 24 h: comparison vs placebo,"endogenous GH secretion; ITT, Day 28",9.5
same,GH concentration at 24 h: median,"endogenous GH secretion; ITT, Day 28",12.5 μIU/mL
same,GH AUC at 4 h: ratio,"endogenous GH secretion; ITT, Day 28, vs placebo",9.5 and 9.49
same,GH SD at 4 h: comparison or ratio of means,"endogenous GH secretion; ITT, Day 28, vs placebo",6.97
same,GH SD at 24 h: comparison or ratio of means,"endogenous GH secretion; ITT, Day 28, vs placebo",3.92
same,GH concentration at 4 h: ratio,"endogenous GH secretion; ITT, Day 28, vs placebo",9.50
same,Mean GH concentration first 4 hours: increase,"endogenous GH secretion; ITT, baseline to day 28",1136%
same,Mean concentration of GH secreted during the first 4 hours,"endogenous GH secretion; ITT, day 28",21.26 μIU/ml
same,Mean amount of GH secreted in 24 hours (AUC),endogenous GH secretion; baseline,3770.62 μIU/ml×min
same,Mean basal GH secretion rate,endogenous GH secretion; baseline,26.9 mU/L/24 h
same,Mean concentration of GH,endogenous GH secretion; baseline,2.49 μIU/ml
same,Mean 24-hour GH AUC: increase,endogenous GH secretion; baseline to day 28,393%
same,Mean amount of GH secreted in 24 hours (AUC),endogenous GH secretion; day 28,18579.9 μIU/ml×min
same,Adiponectin: median (95% CI),"Leptin and adiponectin; ITT, Baseline",20604 ng/mL
same,Leptin: mean (SD),"Leptin and adiponectin; ITT, Baseline",23.80 (34.29) ng/mL
same,Adiponectin: median (95% CI),"Leptin and adiponectin; ITT, Day 7",21293 (14535; 27438) ng/mL
same,Adiponectin: median (95% CI),"Leptin and adiponectin; ITT, Day 14",21548 (15810; 27030) ng/mL
same,Adiponectin: median (95% CI),"Leptin and adiponectin; ITT, Day 21",21905 (15810; 31365) ng/mL
same,Adiponectin: median (95% CI),"Leptin and adiponectin; ITT, Day 28",20553 (16320; 27030) ng/mL
same,Leptin: mean (SD),"Leptin and adiponectin; ITT, Day 28",16.81 (21.81) ng/mL
same,Leptin: ratio of means,"Leptin and adiponectin; ITT, Day 28, vs placebo",0.866
same,"Leptin reduction from baseline, range in all but two patients",Leptin and adiponectin; day 28,10-70%
same,Mean leptin as % of the mean in placebo group,Leptin and adiponectin; in vivo,70%
same,Subjects with abnormal and clinically significant Basophils (%),[1]; Baseline,(0.0%)
same,Subjects with abnormal and clinically significant Eosinophils (%),[1]; Baseline,(0.0%)
same,Subjects with abnormal and clinically significant Haematocrit (%),[1]; Baseline,(7.7%)
same,Subjects with abnormal and clinically significant Haemoglobin (%),[1]; Baseline,(23.1%)
same,Subjects with abnormal and clinically significant Lymphocytes (%),[1]; Baseline,(0.0%)
same,Subjects with abnormal and clinically significant MCV (%),[1]; Baseline,(0.0%)
same,Subjects with abnormal and clinically significant Monocytes (%),[1]; Baseline,(7.7%)
same,Subjects with abnormal and clinically significant Neutrophils (%),[1]; Baseline,(7.7%)
same,Subjects with abnormal and clinically significant Platelet count (%),[1]; Baseline,(0.0%)
same,Subjects with abnormal and clinically significant RBC (%),[1]; Baseline,(7.7%)
same,Subjects with abnormal and clinically significant WBC (%),[1]; Baseline,(0.0%)
same,Number of subjects with abnormal and clinically significant haematocrit,[1]; Day 28,4 subjects
same,Subjects with abnormal and clinically significant Basophils (%),[1]; Day 28,(0.0%)
same,Subjects with abnormal and clinically significant Eosinophils (%),[1]; Day 28,(0.0%)
same,Subjects with abnormal and clinically significant Haematocrit (%),[1]; Day 28,(33.3%)
same,Subjects with abnormal and clinically significant Haemoglobin (%),[1]; Day 28,(41.7%)
same,Subjects with abnormal and clinically significant Lymphocytes (%),[1]; Day 28,(0.0%)
same,Subjects with abnormal and clinically significant MCV (%),[1]; Day 28,(0.0%)
same,Subjects with abnormal and clinically significant Monocytes (%),[1]; Day 28,(8.3%)
same,Subjects with abnormal and clinically significant Neutrophils (%),[1]; Day 28,(16.7%)
same,Subjects with abnormal and clinically significant Platelet count (%),[1]; Day 28,(0.0%)
same,Subjects with abnormal and clinically significant RBC (%),[1]; Day 28,(25.0%)
same,Subjects with abnormal and clinically significant WBC (%),[1]; Day 28,(0.0%)
same,Number of subjects with abnormal and clinically significant haematocrit,[1]; baseline,1 subject
